Laboratory results as given in patent US20250205362A1, “LIPID NANOPARTICLES” (NATIONAL UNIVERSITY CORPORATION HOKKAIDO UNIVERSITY, priority 2022, published 2025).

What was measured:
[1] = Average particle diameter, PdI and zeta potential of lipid nanoparticles (dynamic light scattering); assay type: physicochemical
Method: The mean particle diameter (number average value), ζ-mean particle diameter, and polydispersity index (PdI) of the lipid nanoparticles in PBS(−) (pH 7.4), as well as the zeta potential in 10 mM HEPES buffer (pH 7.4), were measured using an analyzing device, Zetasizer Nano ZS ZEN3600 (Malvern), which utilizes dynamic light scattering.

[2] = system: TTR gene; assay: Measurement of TTR-KO activity (serum TTR protein, ELISA); assay type: in vivo, mouse; conditions: FIG. 5; TTR-RNP-ssODN-loaded LNP; mouse serum 7 days after administration
Method: Lipid nanoparticles encapsulating Cas9/sgTTR-RNP (Cas9/sgTTR-RNP-loaded lipid nanoparticles) were intravenously injected to BALB/c mice (female, 4 weeks old) at the indicated doses. One week after intravenous injection, the mice were euthanized, blood was collected, and serum was isolated by centrifugation. The TTR protein concentration in the serum was determined using a commercially available ELISA kit (Prealbumin ELISA Kit (mouse), Aviva Systems Biology) according to the manufacturer's protocol. The serum TTR protein concentration of untreated mice was taken as 100%, and the relative value (%) of the serum TTR protein concentration of mice administered with each lipid nanoparticle was taken as the knockout activity (TTR-KO activity) of the lipid nanoparticle.

[3] = Encapsulation rate of lipid nanoparticles (Ribogreen); assay type: physicochemical
Method: The encapsulation rate of the lipid nanoparticles was calculated by measuring the amount of encapsulated nucleic acid (the amount of ssODN in the case of RNP-ssODN) using an RNA intercalator Ribogreen (manufactured by Life Technologies).

[4] = system: BALB/c mice; assay: Measurement of Fluc activity in tissues after iv Fluc mRNA-loaded lipid nanoparticles; assay type: in vivo, mouse; conditions: for Fluc activity (gene transfer ability) in liver and spleen: Example 1, FIG. 1, Fluc mRNA-loaded LNP 50/10/40/1.5, Balb/c mice iv 0.01 mg mRNA/kg, 6 hours
Method: First, lipid nanoparticles encapsulating Fluc mRNA (Fluc mRNA-loaded lipid nanoparticles) were intravenously injected into BALB/c mice (female, 4 weeks old) at a dose of 0.01 mg mRNA/kg body weight. Six hours after intravenous injection, the mice were euthanized, and each tissue was collected, frozen in liquid nitrogen, and stored at −80° C. The tissues were homogenized in passive lysis buffer (Promega) using a bead cell disrupter (Micro Smash MS-100R, TOMY Seiko). Tissue debris was removed by centrifugation and the supernatant was collected. Fluc activity in the supernatant was measured using a luciferase assay system (E1500, Promega) according to the manufacturer's protocol. Luminescence was measured using a luminometer (Luminescencer-PSN, ATTO). The protein concentration was determined using a commercially available measurement kit (BCA Protein Assay Kit, Pierce). Fluc activity was expressed as relative light units (RLU) per mg of protein.

[5] = system: factor 7 (F7); conditions: knockdown of factor 7 (F7) in mouse liver; cited from earlier work
[6] = Fluc mRNA-loaded LNP, cationic lipid/DSPC/cholesterol/PEG-DMG 50/10/40/1.5 mol%, Table 5
[7] = TTR-RNP-ssODN-loaded LNP (ssODN-TTR_3-40%), cationic lipid/DSPC/cholesterol/PEG-DMG 50/10/40/3.5 mol%, Table 8
[8] = Fluc mRNA-loaded LNP, CL4F11-e-3/neutral lipid (DSPC or DOPE)/cholesterol/PEG-DMG 50/10/40/0.75 mol%
[9] = Fluc mRNA-loaded LNP, comparison CL4F11-ζ-2, SM, ALC, MC3, Table 21
[10] = Fluc mRNA-loaded LNP, lipid/DSPC/cholesterol/PEG-DMG 50/10/40/1.5 (MC3: 50/10/38.5/1.5) mol%, Table 15
[11] = TTR-RNP-ssODN-loaded LNP, comparison CL4F11-ζ-2, SM, ALC, MC3, Table 20

Number-average particle diameter [1, 6]	PdI [1, 6]	ζ-average [1, 6]	ζ-potential [1, 6]	Number-average particle diameter [1, 7]	PdI [1, 7]	ζ-average [1, 7]	ζ-potential [1, 7]	Encapsulation rate [3, 6]	Encapsulation rate [3, 7]	Compound	serum TTR activity / gene knockout versus CL4F6 [2]	Fluc activity (gene transfer ability) in liver and spleen [4]	ED50 in F7 knockdown [5]	further results
35.3 nm	0.196	65.3 nm	−3.30 mV	82.5 nm	0.104	127.1 nm	−0.48 mV	94.6%	86.0%	7-(4-(dipropylamino)butyl)-7-hydroxytridecane-1,13-diylbis(3-heptyldecanoate) [CL4F10-b-7]	lower serum TTR activity and higher gene knockout	equal to or greater than that of CL4F6		
45.1 nm	0.267	81.5 nm	−4.32 mV	99.6 nm	0.145	141.5 nm	−0.10 mV	91.4%	84.9%	7-(4-(dipropylamino)butyl)-7-hydroxytridecane-1,13-diylbis(3-hexylnonanoate) [CL4F9-b-6]	lower serum TTR activity and higher gene knockout	equal to or greater than that of CL4F6		
										CCCCCCCC/C=C\CCCCCCCC(=O)OC[C@H](COP(=O)(O)OCCN)OC(=O)CCCCCCC/C=C\CCCCCCCC [DOPE, 1,2-dioleoyl-sn-glycero-3-phosphoethanolamine]				Number-average particle diameter [1, 8]: 55.7 nm; PdI [1, 8]: 0.196; ζ-average [1, 8]: 82.1 nm; ζ-potential [1, 8]: −2.35 mV; Encapsulation rate [3, 8]: 89.1%; Fluc activity in liver and spleen ([4]; Example 2, FIG. 3, CL4F11-e-3 LNP with DSPC or DOPE, Balb/c mice): stable activity over a wide range of DOPE contents
										CCCCCC/C=C\COC(=O)CCCCCCCC(CCCCCCCC(=O)OC/C=C\CCCCCC)OC(=O)CCCN(C)C [L319]			0.01 mg siRNA/kg	
										CCCCC/C=C\C/C=C\CCCCCCCCC(CCCCCCCC/C=C\C/C=C\CCCCC)OC(=O)CCCN(C)C [MC3, DLin-MC3-DMA, reference compound]			0.005 mg siRNA/kg	Number-average particle diameter [1, 9]: 71.0 nm; PdI [1, 9]: 0.190; ζ-average [1, 9]: 112.4 nm; ζ-potential [1, 9]: −2.17 mV; Number-average particle diameter [1, 10]: 48.0 nm; PdI [1, 10]: 0.198; ζ-average [1, 10]: 68.6 nm; ζ-potential [1, 10]: 2.19 mV; Number-average particle diameter [1, 11]: 82.7 nm; PdI [1, 11]: 0.213; ζ-average [1, 11]: 155.9 nm; ζ-potential [1, 11]: 0.52 mV; Encapsulation rate [3, 9]: 87.1%; Encapsulation rate [3, 10]: 79.3%; Encapsulation rate [3, 11]: 78.7%
										CCCCC/C=C\C/C=C\CCCCCCCCOC1(OCCCCCCCC/C=C\C/C=C\CCCCC)CCN(C)CC1 [YSK05]			0.06 mg siRNA/kg	
